# Bridge positions count the residues as written; N and C are the ends. Square brackets hold non-standard residues; d marks the D form. Peptide text beside a SMILES is read from it. S5 = C=CCCC[C@](C)(N)C(=O)O; Nle = CCCC[C@H](N)C(=O)O
# Tests used:
# red blood cells (RBCs) = type: cell-based, human
# Procedure: RBC hemolysis assay: To assess the hemolytic activity of a structurally-stabilized peptide described herein, a red blood cell (RBV) hemolysis assay can be used. Human blood samples are centrifuged to isolate RBCs, which are then washed and suspended in phosphate-buffered saline to yield a 1% (v/v) suspension. The suspension is added to serial dilutions of peptide stocks in water in clear round-bottom polypropylene 96-well plates and the plates incubated for 1 hour at 37° C. The plates are then centrifuged and the supernatant isolated to determine the amount of hemoglobin released using a spectrophotometer (570 nm). Percent hemolysis is calculated as: ([Treated Absorbance−Untreated Control Absorbance]×100)/(1% Triton X-100 Treated Absorbance−Untreated Control Absorbance).
# Stapled oncolytic peptide synthesis: Fmoc-based solid-phase peptide synthesis was used to synthesize stapled antimicrobial peptides in accordance with previously reported methods for generating all-hydrocarbon stapled peptides. To achieve the various staple lengths, α-methyl, α-alkenyl amino acids were installed at i, i+4 positions using two S-pentenyl alanine residues (S5). For the stapling reaction, Grubbs 1st generation ruthenium catalyst dissolved in dichloroethane was added to the resin-bound peptides. To ensure maximal conversion, three to five rounds of stapling were performed. The peptides were then cleaved off of the resin using trifluoroacetic acid, precipitated using a hexane:ether (1:1) mixture, air dried, and purified by LC-MS. All peptides were quantified by amino acid analysis. RBC hemolysis assay: Human blood samples were centrifuged to isolate red blood cells (RBCs), which were then washed and suspended in phosphate-buffered saline to yield a 1% (v/v) suspension. The suspension was added to serial dilutions of peptide stocks in water in clear round-bottom polypropylene 96-well plates and the plates incubated for 1 hour at 37° C. The plates were then centrifuged and the supernatant isolated to determine the amount of hemoglobin released using a spectrophotometer (570 nm). Percent hemolysis was calculated as: ([Treated Absorbance−Untreated Control Absorbance]×100)/(1% Triton X-100 Treated Absorbance−Untreated Control Absorbance).
# [1] = tested on: leukemia cells (e.g. U937, OCI-AML3 and MV4;11 cells); type: cell-based; settings: 24 h
# Procedure: (§1) LDH release assay: To assess the release of lactate dehydrogenase (LDH) upon treatment with a structurally-stabilized peptide described herein, an LDH release assay can be used. Cultured cells, including, e.g., cancer cells and HUVEC cells, are plated in 96-well format (2×10^4 cells per well; including overnight incubation for adherent cells) and then treated with serial dilutions of structurally-stabilized peptides in a final volume in a final volume of 100 μL and incubated at 37° C. for the indicated time period (e.g., 90 minutes). The plates are spun down at 1500 rpm for 5 minutes at 4° C., and 80 μL of cell culture media is transferred to a clear plate (Corning), incubated with 80 μL of LDH reagent (Roche) for 15 minutes while shaking, and absorbance is measured at 490 nm on a microplate reader (SpectraMax M5 Microplate Reader, Molecular Devices). LDH release assays, as tailored to specific cancer cell types (OCI-AML3 cells and primary human pediatric B-ALL cells), are exemplified below.
# LDH release assay: Cultured cells, including cancer cells and HUVEC cells, were plated in 96-well format (2×10^4 cells per well; including overnight incubation for adherent cells) and then treated with serial dilutions of Mag(i+4) peptides in a final volume in a final volume of […] and incubated at 37° C. for the indicated time period. […]
# [2] = mice; Mourtada et al., Nature Biotech, 2019; cited from earlier work
# OCI-AML3 cells = experiment: LDH release assay of OCI-AML3 cells; type: cell-based, human; settings: 10 and 25 μg/mL, 90 minutes, FIG. 6, FIG. 7
# Procedure: as §1
# (§2) LDH release assay of OCI-AML3 cells: OCI-AML3 cells are seeded in 96-well plates (2×10^4 cells per well) in RPMI medium containing 5% FBS and treated with structurally-stabilized peptides for 90 minutes. LDH release is quantified by incubating centrifuged (e.g., at 1500 rpm) cell culture medium 1:1 with LDH reagent (Roche), followed by absorbance measurement 490 nm on a microplate reader (Spectramax M5). Percent LDH release was normalized to 1% Triton.
# (§3) LDH release assay: Cultured cells, including cancer cells and HUVEC cells, were plated in 96-well format (2×10^4 cells per well; including overnight incubation for adherent cells) and then treated with serial dilutions of Mag(i+4) peptides in a final volume in a final volume of […] and incubated at 37° C. for the indicated time period. The plates were spun down at 1500 rpm for 5 min at 4° C., and 80 μL of cell culture media was transferred to a clear plate (Corning), incubated with 80 μL of LDH reagent (Roche) for 15 min while shaking, and absorbance measured at 490 nm on a microplate reader (SpectraMax M5 Microplate Reader, Molecular Devices). LDH release assays, as tailored to specific cancer cell types, are exemplified below.
# as §2, with “were” for “are”, “with” for “with structurally-stabilized”, “peptides having the indicated amino acid sequences” for “peptides”, “was” for “is”, “centrifuged” for “centrifuged (e.g., at 1500 rpm)”, “Triton. Data was pooled from 2 technical replicates.” for “Triton.”
# U937 cells = experiment: LDH release assay of U937 cells; type: cell-based; settings: 10 and 25 μg/mL, 90 minutes, FIG. 6, FIG. 7
# Procedure: as §1, §3
# B. cereus = experiment: killing of B. cereus; type: cell-based; settings: vs Mag(i+4)15
# S. aureus = experiment: killing of S. aureus; type: cell-based; settings: vs Mag(i+4)15
compound,measurement,setting,value
"CCCC[C@H](NC(=O)[C@@H](NC(=O)[C@H](CCC(=O)O)NC(=O)CNC(=O)[C@@H](NC(=O)[C@H](Cc1ccccc1)NC(=O)[C@H](C)NC(=O)[C@H](CCCCN)NC(=O)CNC(=O)[C@H](Cc1ccccc1)NC(=O)[C@H](CCCCN)NC(=O)[C@H](CCCCN)NC(=O)[C@H](C)NC(=O)[C@H](CO)NC(=O)[C@H](Cc1c[nH]cn1)NC(=O)[C@H](CC(C)C)NC(=O)[C@]1(C)CCCC=CCCC[C@](C)(N)C(=O)N[C@@H]([C@@H](C)CC)C(=O)NCC(=O)N[C@@H](CCCCN)C(=O)N1)C(C)C)[C@@H](C)CC)C(=O)N[C@@H](CC(N)=O)C(=O)N[C@@H](CO)C(N)=O [Mag(i+4)0, X1IGKX2LHSAKKFGKAFVGEIBNS] (H-[S5]IGK[S5]LHSAKKFGKAFVGEI[Nle]NS-NH2; staple 1-5)",RBC lysis,red blood cells (RBCs),little to no effect on RBCs
"CC(C)[C@@H]1NC(=O)[C@@](C)(NC(=O)[C@H](C)NC(=O)[C@H](CCCCN)NC(=O)CNC(=O)[C@H](Cc2ccccc2)NC(=O)[C@H](CCCCN)NC(=O)[C@H](CCCCN)NC(=O)[C@H](CCCCN)NC(=O)[C@H](CO)NC(=O)[C@H](Cc2c[nH]cn2)NC(=O)[C@]2(C)CCCC=CCCC[C@](C)(NC(=O)CN)C(=O)NCC(=O)N[C@@H](CCCCN)C(=O)N[C@@H](Cc3ccccc3)C(=O)N2)CCCC=CCCC[C@@](C)(C(=O)N[C@@H](C)C(=O)N[C@@H](CCCCN)C(=O)N[C@@H](CCCCN)C(N)=O)NC(=O)[C@H](CCC(=O)O)NC(=O)CNC1=O [Mag(i+4)1,15 (A9K, B21A, N22K, S23K), GX1GKFX2HSKKKFGKAX3VGEX4AKK] (H-G[S5]GKF[S5]HSKKKFGKA[S5]VGE[S5]AKK-NH2; staple 2-6, 16-20)",EC50 of leukemia cell lysis (LDH release),[1],11.5 to 28.2 µg/mL
same,"toxicity (gross toxicity, red cell hemolysis, kidney epithelium)",[2],"without gross toxicity, red cell hemolysis or damage to kidney epithelium"
"CCCC[C@H](NC(=O)[C@@H](NC(=O)[C@H](CCC(=O)O)NC(=O)CNC(=O)[C@@H](NC(=O)[C@H](Cc1ccccc1)NC(=O)[C@H](C)NC(=O)[C@H](CCCCN)NC(=O)CNC(=O)[C@H](Cc1ccccc1)NC(=O)[C@H](CCCCN)NC(=O)[C@H](CCCCN)NC(=O)[C@H](C)NC(=O)[C@H](CO)NC(=O)[C@]1(C)CCCC=CCCC[C@](C)(NC(=O)[C@@H](NC(=O)CN)[C@@H](C)CC)C(=O)N[C@@H](CCCCN)C(=O)N[C@@H](Cc2ccccc2)C(=O)N[C@@H](CC(C)C)C(=O)N1)C(C)C)[C@@H](C)CC)C(=O)N[C@@H](CC(N)=O)C(=O)N[C@@H](CO)C(N)=O [Mag(i+4)2, GIX1KFLX2SAKKFGKAFVGEIBNS] (H-GI[S5]KFL[S5]SAKKFGKAFVGEI[Nle]NS-NH2; staple 3-7)",RBC lysis,red blood cells (RBCs),little to no effect on RBCs
"CCCC[C@H](NC(=O)[C@@H](NC(=O)[C@H](CCC(=O)O)NC(=O)CNC(=O)[C@@H](NC(=O)[C@H](Cc1ccccc1)NC(=O)[C@H](C)NC(=O)[C@H](CCCCN)NC(=O)CNC(=O)[C@H](Cc1ccccc1)NC(=O)[C@]1(C)CCCC=CCCC[C@](C)(NC(=O)[C@H](CC(C)C)NC(=O)[C@H](Cc2ccccc2)NC(=O)[C@H](CCCCN)NC(=O)CNC(=O)[C@@H](NC(=O)CN)[C@@H](C)CC)C(=O)N[C@@H](CO)C(=O)N[C@@H](C)C(=O)N[C@@H](CCCCN)C(=O)N1)C(C)C)[C@@H](C)CC)C(=O)N[C@@H](CC(N)=O)C(=O)N[C@@H](CO)C(N)=O [Mag(i+4)6, GIGKFLX1SAKX2FGKAFVGEIBNS] (H-GIGKFL[S5]SAK[S5]FGKAFVGEI[Nle]NS-NH2; staple 7-11)",RBC lysis,red blood cells (RBCs),no effect on any cell type
"CCCC[C@@H]1NC(=O)[C@H]([C@@H](C)CC)NC(=O)[C@@](C)(NC(=O)CNC(=O)[C@@H](NC(=O)[C@H](Cc2ccccc2)NC(=O)[C@H](C)NC(=O)[C@H](CCCCN)NC(=O)CNC(=O)[C@H](Cc2ccccc2)NC(=O)[C@H](CCCCN)NC(=O)[C@H](CCCCN)NC(=O)[C@H](C)NC(=O)[C@H](CO)NC(=O)[C@H](Cc2c[nH]cn2)NC(=O)[C@H](CC(C)C)NC(=O)[C@H](Cc2ccccc2)NC(=O)[C@H](CCCCN)NC(=O)CNC(=O)[C@@H](NC(=O)CN)[C@@H](C)CC)C(C)C)CCCC=CCCC[C@@](C)(C(N)=O)NC(=O)[C@H](CC(N)=O)NC1=O [Mag(i+4)18, GIGKFLHSAKKFGKAFVGX1IBNX2] (H-GIGKFLHSAKKFGKAFVG[S5]I[Nle]N[S5]-NH2; staple 19-23)",RBC lysis,red blood cells (RBCs),lytic to all three cell types
GKGKFLHSAKKFGKAX1VGEX2BNS [Mag(i+4)15 (I2K)],"cancer cell lysis by LDH release, compared with parent Mag(i+4)15",OCI-AML3 cells,"retain substantial, if not all, oncolytic activity"
same,"cancer cell lysis by LDH release, compared with parent Mag(i+4)15",U937 cells,"retain substantial, if not all, oncolytic activity"
same,killing of B. cereus compared to the parent compound,B. cereus,substantially impaired
same,killing of S. aureus compared to the parent compound,S. aureus,substantially impaired
KIGKFLHSAKKFGKAX1VGEX2BNS [Mag(i+4)15 (G1K)],"cancer cell lysis by LDH release, compared with parent Mag(i+4)15",OCI-AML3 cells,"retain substantial, if not all, oncolytic activity"
same,"cancer cell lysis by LDH release, compared with parent Mag(i+4)15",U937 cells,"retain substantial, if not all, oncolytic activity"
same,killing of B. cereus compared to the parent compound,B. cereus,substantially impaired
same,killing of S. aureus compared to the parent compound,S. aureus,substantially impaired

# Reference: patent US20230116760A1, “STRUCTURALLY-STABILIZED ONCOLYTIC PEPTIDES AND USES THEREOF” (Dana-Farber Cancer Institute, Inc., priority 2019, published 2023)
